Results published in patent US7838553B2, “Benzopyran derivatives as potassium channel openers” (Janssen Pharmaceutica NV, priority 2005, dated 2010).
pEC50: −log10 of the molar value.

Biological target: T1, KATP channels (Homo sapiens, UniProt O60706+Q14654)
T1 construct: TE671 human medulloblastoma cells were obtained from ATCC; host or cells: TE671 human medulloblastoma cells
Assay: Potassium Channel Assay (FLIPR membrane potential)
Format: cell-based
Conditions: TE671 human medulloblastoma cells, Membrane Potential Assay Dye, room temperature, hyperpolarization from KATP channel opening
Protocol: TE671 human medulloblastoma cells were obtained from ATCC and grown in Dulbecco's modified Eagle's medium (DMEM) supplemented with 10% fetal bovine serum, 100 U/ml penicillin and […].
The day before testing, the cells were plated in black 96-well plates at 50 K/well. On the day of testing, the growth media was removed, then 100 μl of FLIPR buffer (20 mM HEPES, 120 mM NaCl, 2 mM KCl, 2 mM CaCl2, 1 mM MgCl2, 5 mM Glucose) and 100 μl of Membrane Potential Assay Dye (Molecular Devices) dissolved in FLIPR buffer were added to each well. The cells were incubated at room temperature for 15 to 30 min.
The effect of test compounds on KATP channels were evaluated on a fluorometric imaging plate reader (FLIPR, Molecular Devices) at room temperature. After a baseline period, 50 μl of 5× stock solution of test compound prepared in FLIPR buffer was added and fluorescent change was monitored for 3 minutes. After this reading, glyburide, a KATP channel blocker, was added to a final concentration of 5 μM to check the specificity of the test compound as a KATP channel openers. Hyperpolarization resulting from KATP channel opening was observed as a decrease in fluorescent intensity.
Representative compounds of the present invention were tested according to the procedure described above, with results as listed in Table 7, below.

T1 sequence (O60706 1-1549 isoform O60706-2): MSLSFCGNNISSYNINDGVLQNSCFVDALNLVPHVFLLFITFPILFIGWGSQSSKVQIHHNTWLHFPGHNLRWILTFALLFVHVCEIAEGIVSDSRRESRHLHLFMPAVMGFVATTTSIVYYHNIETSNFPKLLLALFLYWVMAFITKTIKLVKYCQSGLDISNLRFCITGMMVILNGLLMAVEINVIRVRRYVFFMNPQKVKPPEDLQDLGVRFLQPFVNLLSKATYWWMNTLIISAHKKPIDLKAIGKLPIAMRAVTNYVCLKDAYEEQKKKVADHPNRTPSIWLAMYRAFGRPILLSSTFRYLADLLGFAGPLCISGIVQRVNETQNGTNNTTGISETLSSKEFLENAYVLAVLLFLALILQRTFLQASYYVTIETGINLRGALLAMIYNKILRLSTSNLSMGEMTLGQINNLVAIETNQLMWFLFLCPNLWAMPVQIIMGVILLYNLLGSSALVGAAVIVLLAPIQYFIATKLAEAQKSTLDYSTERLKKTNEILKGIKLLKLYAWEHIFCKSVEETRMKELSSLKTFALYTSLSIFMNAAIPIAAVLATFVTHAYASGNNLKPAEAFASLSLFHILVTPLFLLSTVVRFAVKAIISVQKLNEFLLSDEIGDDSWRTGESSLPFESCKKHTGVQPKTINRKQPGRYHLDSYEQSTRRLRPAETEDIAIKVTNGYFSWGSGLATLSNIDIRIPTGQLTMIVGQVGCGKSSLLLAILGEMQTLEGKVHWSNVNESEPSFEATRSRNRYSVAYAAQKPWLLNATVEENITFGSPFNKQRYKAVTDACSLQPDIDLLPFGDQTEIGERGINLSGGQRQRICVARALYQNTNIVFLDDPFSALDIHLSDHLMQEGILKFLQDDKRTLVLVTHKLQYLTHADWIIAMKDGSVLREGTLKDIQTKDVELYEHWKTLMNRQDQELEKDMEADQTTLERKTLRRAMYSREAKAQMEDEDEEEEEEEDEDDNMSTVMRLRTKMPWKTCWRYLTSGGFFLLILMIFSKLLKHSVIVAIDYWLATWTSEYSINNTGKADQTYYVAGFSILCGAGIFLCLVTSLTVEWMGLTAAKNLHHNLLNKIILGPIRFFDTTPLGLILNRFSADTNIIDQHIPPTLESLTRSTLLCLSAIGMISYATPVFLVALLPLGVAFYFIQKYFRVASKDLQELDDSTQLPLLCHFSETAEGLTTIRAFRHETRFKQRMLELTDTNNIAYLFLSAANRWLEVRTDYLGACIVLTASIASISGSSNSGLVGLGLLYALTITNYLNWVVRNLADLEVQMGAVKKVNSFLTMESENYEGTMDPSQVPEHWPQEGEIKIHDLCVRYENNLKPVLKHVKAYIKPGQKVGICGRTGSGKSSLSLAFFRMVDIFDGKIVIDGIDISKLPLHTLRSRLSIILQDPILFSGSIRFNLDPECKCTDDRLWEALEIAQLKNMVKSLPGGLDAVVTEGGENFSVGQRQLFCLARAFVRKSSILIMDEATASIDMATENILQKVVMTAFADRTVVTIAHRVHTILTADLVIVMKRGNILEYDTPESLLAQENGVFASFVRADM
T1 sequence (Q14654 whole entry): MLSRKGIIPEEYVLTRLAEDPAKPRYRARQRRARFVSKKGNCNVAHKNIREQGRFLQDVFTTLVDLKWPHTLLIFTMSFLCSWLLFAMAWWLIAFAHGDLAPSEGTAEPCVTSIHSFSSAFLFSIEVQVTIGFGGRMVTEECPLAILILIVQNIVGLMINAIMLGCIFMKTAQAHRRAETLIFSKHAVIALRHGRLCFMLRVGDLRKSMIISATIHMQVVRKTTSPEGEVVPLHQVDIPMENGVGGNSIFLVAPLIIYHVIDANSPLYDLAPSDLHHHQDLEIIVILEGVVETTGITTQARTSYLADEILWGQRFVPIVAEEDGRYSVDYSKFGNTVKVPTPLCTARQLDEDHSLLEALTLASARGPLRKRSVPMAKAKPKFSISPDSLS

| pEC50 | SMILES |
| --- | --- |
| < 4.52 | CC1(C)Oc2ccncc2[C@@H](n2c(=O)ccn2-c2ccc(Cl)cc2)[C@@H]1O (racemic) [Compound 110, 1-(4-Chloro-phenyl)-2-(3-hydroxy-2,2-dimethyl-3,4-dihydro-2H-pyrano[32-c]pyridin-4-yl)-1,2-dihydro-pyrazol-3-one] |
| 6.08 | CC1(C)Oc2ccc(C#N)cc2[C@@H](Sc2ncc[nH]2)[C@@H]1O [Compound 25, (3S,4R)-3-Hydroxy-4-(2H-imidazol-2-ylsulfanyl)-2,2-dimethyl-chroman-6-carbonitrile] |
| < 4.52 | CC1(C)Oc2ccc(S(=O)(=O)c3ccccc3)cc2[C@@H](Oc2noc3ccc(Cl)cc23)[C@@H]1O [Compound 75, (3S,4R)-6-Benzenesulfonyl-4R-(5-chloro-benzo[d]isoxazol-3-yloxy)-2,2-dimethyl-chroman-3S-ol] |
